Measurements reported in patent US20080274095A1, “Biocides” (priority 2004, published 2008).
Ends that are not written are not given here.

How the values were obtained:
[1] = test system: Caco-2 Host Cells; test: Host cell toxicity assay by LDH release; format: cell-based, human
Protocol: Host cell toxicity assay was performed by measuring the release of lactate dehydrogenase (LDH) in the medium using a CYTOTOX 96 Non-Radioactive Cytotoxicity Assay kit (Promega, Madison, Wis.). Toxicity was therefore classified as non toxic 0-5% LDH release and mild toxicity 5-10% LDH release (ref).

[2] = test system: panel of organisms in stationary growth phase; details: cited from earlier work
[3] = test system: Caco-2 cells; test: Caco-2 cell viability by trypan blue dye exclusion; format: cell-based, human; details: following exposure to PLA2-treated sporozoites, 24 hrs
Protocol: This experiment describes the effects of PLA2 on sporozoite infectivity. Briefly, sporozoites were incubated in an isotonic saline solution (37° C., 30 min) with a range of concentrations of PLA2 isolated from honey bee venom (Sigma-Aldrich Corp., St. Louis, Mo., 1.5 U/μg protein). Control sporozoites were identically incubated in buffer containing concentration-matched BSA but no PLA2. Sporozoites were then washed in medium and inoculated onto replicate Caco-2 human intestinal epithelial cell monolayers. 24 h later, infection was quantified in test and control monolayers by immunofluorescence assay as described herein and the mean percent reduction of infection calculated. […] Percent viability of Caco-2 cells following exposure to PLA2-treated sporozoites (86%) was similar to that of uninoculated control cells (91%) at 24 hrs, as determined by trypan blue dye exclusion. […] Through fusion of PLA2 to a monoclonal antibody with a high affinity for sporozoites, such as 1E10 or 4H9, lethal concentrations of biocide are deliverable to the sporozoite surface with relatively low amounts of biocide being used.

[4] = test system: C. parvum sporozoites; test: Effect of PLA2 on C. parvum sporozoite infectivity for Caco-2 monolayers; format: cell-based, Cryptosporidium parvum
Protocol: This experiment describes the effects of PLA2 on sporozoite infectivity. Briefly, sporozoites were incubated in an isotonic saline solution (37° C., 30 min) with a range of concentrations of PLA2 isolated from honey bee venom (Sigma-Aldrich Corp., St. Louis, Mo., 1.5 U/μg protein). Control sporozoites were identically incubated in buffer containing concentration-matched BSA but no PLA2. Sporozoites were then washed in medium and inoculated onto replicate Caco-2 human intestinal epithelial cell monolayers. 24 h later, infection was quantified in test and control monolayers by immunofluorescence assay as described herein and the mean percent reduction of infection calculated. […] Percent viability of Caco-2 cells following exposure to PLA2-treated sporozoites (86%) was similar to that of uninoculated control cells (91%) at 24 hrs, as determined by trypan blue dye exclusion. […]
For this assay, isolated sporozoites are incubated (15 min, 37° C.) with an individual biocide in isotonic buffer over a range of concentrations that would theoretically be achievable at the sporozoite surface by targeted delivery as a MAb-biocide fusion protein. […] In parallel, viability of control sporozoites after incubation with the selected biocide concentrations is determined by fluorescein diacetate assay. […] Samples are then processed and evaluated as described herein. […]

[5] = read-out: affinity constant (Km) for substrate; cited from earlier work

Row | Compound | % LDH release ([1]; 10 μg/ml) [%] | % LDH release ([1]; 100 μg/ml) [%] | further results
1 | CC[C@H](C)[C@H](NC(=O)[C@H](CCCCN)NC(=O)[C@H](CCC(=O)O)NC(=O)[C@H](CCCCN)NC(=O)[C@H](CO)NC(=O)[C@H](CCCCN)NC(=O)[C@H](CCCNC(=N)N)NC(=O)[C@H](Cc1ccccc1)NC(=O)[C@H](Cc1ccccc1)NC(=O)[C@H](CC(=O)O)NC(=O)CNC(=O)[C@H](CC(C)C)NC(=O)[C@@H](N)CC(C)C)C(=O)NCC(=O)N[C@@H](CCCCN)C(=O)N[C@@H](CCC(=O)O)C(=O)N[C@@H](Cc1ccccc1)C(=O)N[C@@H](CCCCN)C(=O)N[C@@H](CCCNC(=N)N)C(=O)N[C@H](C(=O)N[C@H](C(=O)N[C@@H](CCC(N)=O)C(=O)N[C@@H](CCCNC(=N)N)C(=O)N[C@H](C(=O)N[C@@H](CCCCN)C(=O)N[C@@H](CC(=O)O)C(=O)N[C@@H](Cc1ccccc1)C(=O)N[C@@H](CC(C)C)C(=O)N[C@@H](CCCNC(=N)N)C(=O)N[C@@H](CC(N)=O)C(=O)N[C@@H](CC(C)C)C(=O)N[C@H](C(=O)N1CCC[C@H]1C(=O)N[C@@H](CCCNC(=N)N)C(=O)N[C@H](C(=O)N[C@@H](CCC(=O)O)C(=O)N[C@@H](CO)C(=O)O)[C@@H](C)O)C(C)C)[C@@H](C)CC)C(C)C)[C@@H](C)CC [CAT, cathelicidin] | 1.6 ± 0.3 | 5.6 ± 0.9 | 
2 | HNP-1: human neutrophil defensin, SEQ ID NO 38 |  |  | antimicrobial properties relative to other defensins [2]: most potent antimicrobial properties
3 | NP-1: rabbit neutrophil defensin, SEQ ID NO 42 (VVCACRRALCLPRERRAGFCRIRGRIHPLCCRR) |  |  | antimicrobial properties relative to other defensins [2]: most potent antimicrobial properties
4 | b-defensin 1 (DHYNCVSSGGQCLYSACPIFTKIQGTCYRGKAKCCK; ends and bridges not checked; cysteine pairing not given here; UniProt P60022 33-68, looked up) [βD1, Peptides international] | 0.8 ± 1.0 | 2.3 ± 2.1 | 
5 | b-defensin 2 [βD2] | −0.9 ± 0.5 | 5.3 ± 1.5 | 
6 | bee-venom phospholipase A2 [PLA2] |  | 0.7 ± 0.7 | Percent viability of Caco-2 cells [3]: 86%; concentration effective in neutralization ([4]; preliminary data): < 0.02 units/ml; concentration achieving highly significant reduction of sporozoite infectivity ([4]; sporozoites incubated 37° C., 30 min with bee venom PLA2, Caco-2 monolayers, 24 h, P<0.0005): ≤ 0.014 U/ml
7 | indolicidin | 0.9 ± 0.7 | 8.3 ± 3.5 | 
8 | lactoferricin B [LFB] | 3.7 ± 2.3 | 2.6 ± 2.0 | 
9 | lysozyme [LYZ] |  | −1.9 ± 1.3 | Km [5]: ~1000 µM
10 | phospho-inositol specific phospholipase C [PI-PLC] |  | −1.4 ± 0.9 | 
11 | phospholipase A2 |  |  | Km [5]: ~100 µM
